Each structure is given as a SMILES string. Some results are limits rather than exact numbers.

For the first test, the system named is RNA polymerase II Serine 5 phosphorylation (Rpb1 CTD), downstream substrate of CDK7. Kind of test: Imaging-based cellular RNA PolII Ser5 phosphorylation assay in A549 cells. The format is cell-based, human. The note with it: Homo sapiens, A549, 3 h, challenged with compound for 3 hours, read-out: pRNA polII Ser5 (A549) pIC50 (converted). From the text: Dosing curves were fitted using the following equation to obtain IC50: Y=Bottom+(Top−Bottom)/(1+10^((log IC50−X)*Hill slope)) where X=log10 of the compound concentration; top and bottom can be defined by PC and NC respectively. Imaging-Based Cellular RNA PolII Ser5 Phosphorylation Assay
To evaluate inhibition of CDK7 kinase activity, a 384-well automated imaging assay was used. This assay detects Serine 5 phosphorylation on a unique heptapeptide sequence in the C-terminal domain of Rpb1 subunit of RNA polymerase II, the downstream substrate of CDK7. This heptapeptide sequence is repeated up to 52 times in the CTD of Rpb1.
A549 adenocarcinoma human alveolar basal epithelial cells (ATCC, CCL-185), rabbit Phospho-Rpb1 CTD (Ser5) antibody (D9N51 (Cell Signaling Technology)), DMEM (Sigma), Fetal Bovine Serum (Biowest), L-glutamine (Sigma), Penicillin/Streptomycin (Life Technologies), Sodium Pyruvate (Sigma), Hepes (Sigma), poly-D-lysine coated μclear 384 black plates (Greiner), formaldehyde (PolySciences), D-PBS (Sigma), Methanol (Sigma), Alexa Fluor 488 goat anti rabbit IgG secondary antibody (Life Technologies), HCS CellMask™ Deep Red stain (Life Technologies), Hoechst 33258 (Invitrogen).
RNA Polymerase II Serine 5 phosphorylation was detected using a specific rabbit Phospho-Rpb1 CTD (Ser5) antibody. A549 adenocarcinoma human alveolar basal epithelial cells were seeded in 20 μl medium (DMEM supplemented with 1% Fetal Bovine Serum (heat inactivated 30′ 56° C.), 2 mM L-glutamine, 50 U/ml penicillin 50 μg/ml streptomycin, 1 mM sodium pyruvate and 50 mM hepes) at 1000 cells/well and cultured in poly-D-lysine coated μclear 384 black plates for 20 hours at 37° C. and 5% CO2.
After incubation cells were challenged with compound for 3 hours at 37° C. and 5% CO2. DMSO was used as high control and as low control 10 μM of LDC4297 reference compound was used. 40 nl of test compounds and controls were spotted in cell plates using Echo Liquid Handler (Echo 550, Labcyte). Incubation was followed by 20 minutes fixation with 20 μl 10% formaldehyde at room temperature. Medium/formaldehyde solution was removed, plates were washed 3 times with 30 μl D-PBS (w/o Ca^2+ and Ma^2+) and permeabilization was done by adding 20 μl ice cold methanol for 20 minutes. Cells were washed again 3 times with 30 μl D-PBS and 20 μl blocking buffer (25 ml fetal bovine serum in 500 ml D-PBS) was added for 1 hour.
After removing blocking buffer 20 μl 1/1000 primary antibody rabbit. Phospho-Rpb1 CTD (Ser5) antibody was added which binds to the phosphorylated Serine5 of the heptapeptide sequences in the CTD of Rpb1. Primary antibody was removed, and plates were washed 3 times with 30 μl D-PBS followed by addition of 20 μl 1/2000 Alexa Fluor 488 goat anti rabbit IgG secondary antibody for final detection of Phospho-Rpb1 CTD (Ser5) together with 1/5000 HCS CellMask™ Deep Red stain for membrane staining and 1/5000 Hoechst 33258 for nucleus staining. Last, plates were washed 2 times with 30 μl D-PBS and wells were filled with 40 μL D-PBS, plates were sealed (Thermowell sealing tape) and stored at 4° C. until reading. Plates were read with Opera Phenix (Perkin Elmer) with 10× air objective. Data were calculated and analyzed in Phaedra.
IC50 values were calculated using the following formula:
Average value of all HC's and all LC's are used for normalizations. % Effect=100−(sample−LC)/(HC−LC)×100% Control=(sample/HC)×100
A best-fit curve is fitted by a minimum sum of squares method to the plot of % Control vs. compound concentration. From this an IC50 value can be obtained. An estimate of the slope of the plot in terms of the Hill coefficient is also obtained.
For `[2H]C([2H])([2H])c1cccc([C@H]2CN(C)CC[C@@H]2C(=O)N2Cc3nc(NCc4ccn(C)n4)ncc3C[C@H]2C)c1` (relative stereo) [Compound 100], the IC50 was about 26.3 nM. Regarding `C[C@H]1Cc2cnc(NC3CCOCC3)nc2[C@H](C)N1C(=O)[C@H]1CCN(C)C[C@@H]1c1ccccc1` [Compound 196], the IC50 was 776 nM. Still for that read-out and setting: in the case of `Cc1nn(C)cc1Nc1ncc2c(n1)CN(C(=O)[C@H]1CCN(C)C[C@@H]1c1ccccc1)[C@H](C)C2` [Compound 86] it was 447 nM. On to `C[C@@H]1Cc2cnc(Nc3cnn(CC4CC4)c3)nc2CN1C(=O)[C@H]1CCN(C)C[C@@H]1c1ccccc1` [Compound 80], for which the IC50 is 18.6 nM. With `C[C@@H]1Cc2cnc(Nc3cn(C)nc3C(F)(F)F)nc2CN1C(=O)[C@H]1CCN(C)C[C@@H]1c1ccccc1` [Compound 84], the IC50 was 1120 nM. As to `CCN1CC[C@H](C(=O)N2Cc3nc(NC4CCOCC4)ncc3C[C@H]2C)[C@@H](c2ccccc2)C1` (single isomer, unassigned) [Compound 158], the IC50 was 77.6 nM. The same measure, in the same setting: in the case of `C[C@@H]1Cc2cnc(NCc3ccn(C)n3)nc2CN1C(=O)[C@@H]1CCN(C)C[C@H]1c1cccc(C(F)F)c1` (relative stereo) [Compound 123] it was 2400 nM; in that of `CCO[C@H]1CC[C@H](Nc2ncc3c(n2)CN(C(=O)[C@H]2CCN(C)C[C@@H]2c2ccccc2)[C@H](C)C3)CC1` [Compound 19], 41.7 nM; in that of `CN1CC[C@H](C(=O)N2Cc3nc(NCc4ccn(C)n4)ncc3[C@@H]3C[C@@H]32)[C@@H](c2ccccc2)C1` [Compound 198], 234 nM. As to `C[C@@H]1Cc2cnc(Nc3cnn(C4CCCC4)c3)nc2CN1C(=O)[C@H]1CCN(C)C[C@@H]1c1ccccc1` [Compound 88], the IC50 is 28.8 nM. Same read-out and setting: the value for `C[C@@H]1Cc2cnc(N[C@H]3CCOC4(CCCC4)C3)nc2CN1C(=O)[C@H]1CCN(C)C[C@@H]1c1ccccc1` (relative stereo) [Compound 16] was 40.7 nM. As to `CC(C)N1CC[C@H](C(=O)N2Cc3nc(NC4CCOCC4)ncc3C[C@H]2C)[C@@H](c2ccccc2)C1` (single isomer, unassigned) [Compound 157], the IC50 was 178 nM.

As to `Cc1cccc([C@@H]2CN(C)CC[C@H]2C(=O)N2Cc3cc(Nc4cnn(C)c4)ncc3C[C@@H]2C)c1` (single isomer, unassigned) [Compound 179], the IC50 was about 83.2 nM.

Consider `C[C@@H]1Cc2cnc(Nc3ccnc(C4CC4)c3)nc2CN1C(=O)[C@H]1CCN(C)C[C@@H]1c1ccccc1` [Compound 76], for which the IC50 was about 33.1 nM. Same read-out and setting: in the case of `C[C@@H]1CN(C)CC[C@H]1C(=O)N1Cc2nc(NCc3ccn(C)n3)ncc2C[C@H]1C` (relative stereo) [Compound 147] it was 813 nM; in that of `Cc1nn(C)c(C)c1Nc1ncc2c(n1)CN(C(=O)[C@H]1CCN(C)C[C@@H]1c1ccccc1)[C@H](C)C2` [Compound 81], 1350 nM. Regarding `C[C@@H]1Cc2cnc(N[C@@H]3COc4ccccc43)nc2CN1C(=O)[C@H]1CCN(C)C[C@@H]1c1ccccc1` (relative stereo) [Compound 18], the IC50 is 490 nM. `C[C@@H]1Cc2cnc(Nc3cnn(CC(F)F)c3)nc2CN1C(=O)[C@H]1CCN(C)C[C@@H]1c1ccccc1` [Compound 85]: the IC50 was about 30.9 nM. On to `C[C@@H]1Cc2cnc(N[C@H]3COc4ccccc43)nc2CN1C(=O)[C@H]1CCN(C)C[C@@H]1c1ccccc1` (relative stereo) [Compound 17], for which the IC50 was 363 nM.

On to `C[C@@H]1Cc2cnc(NC3CCOCC3)nc2CN1C(=O)[C@H]1CCN(C2COC2)C[C@@H]1c1ccccc1` (single isomer, unassigned) [Compound 159], for which the IC50 was over 10000 nM.

Regarding `CC(C)Oc1cccc([C@@H]2CN(C)CC[C@H]2C(=O)N2Cc3nc(NCc4ccn(C)n4)ncc3C[C@H]2C)c1` (relative stereo) [Compound 138a], the IC50 was over 10000 nM. `CC(C)Oc1cccc([C@H]2CN(C)CC[C@@H]2C(=O)N2Cc3nc(NCc4ccn(C)n4)ncc3C[C@H]2C)c1` (relative stereo) [Compound 138b]: the IC50 is 182 nM. On the same count and under the same terms, the value for `Cc1c(Nc2ncc3c(n2)CN(C(=O)[C@H]2CCN(C)C[C@@H]2c2ccccc2)[C@H](C)C3)cnn1C` [Compound 87] was 661 nM; that for `C[C@@H]1Cc2cnc(NCc3ccn(C)n3)nc2CN1C(=O)[C@H]1CCN(C)C[C@@H]1c1cccc(C2CC2)c1` (relative stereo) [Compound 121] was under 2.45 nM; that for `C[C@@H]1Cc2cnc(NCc3ccn(C)n3)nc2CN1C(=O)[C@H]1CCN(C)C[C@@H]1c1cccc(C(F)F)c1` (relative stereo) [Compound 124] was about 44.7 nM. Turning to `CO[C@H]1CC[C@H](Nc2ncc3c(n2)CN(C(=O)[C@H]2CCN(C)C[C@@H]2c2ccccc2)C(C)(C)C3)CC1` (single isomer, unassigned) [Compound 190], the IC50 is 240 nM.

Turning to `Cc1cccc([C@H]2CN(C)CC[C@@H]2C(=O)N2Cc3nc(Nc4ccnc(C)c4)ncc3C[C@H]2C)c1` [Compound 135], the IC50 is about 20.4 nM. Take `[2H]C([2H])([2H])c1cccc([C@@H]2CN(C)CC[C@H]2C(=O)N2Cc3nc(NCc4ccn(C)n4)ncc3C[C@H]2C)c1` (relative stereo) [Compound 99]: the IC50 is 603 nM. In the case of `[2H]C([2H])([2H])N1CC[C@@H](C(=O)N2Cc3cc(NCc4ccn(C)n4)ncc3C[C@@H]2C)[C@H](c2ccccc2)C1` (single isomer, unassigned) [Compound 178], the IC50 is 3720 nM.

The same test, now with this note: challenged with compound for 3 hours.
As to `[2H]C([2H])([2H])c1cccc([C@@H]2CN(C)CC[C@H]2C(=O)N2Cc3nc(Nc4cnn(C)c4)ncc3C[C@H]2C)c1` (relative stereo) [Compound 98], the “pRNA polII Ser5 (A549) pIC50” value was about 7.6. Still for that read-out and setting: the value for `[2H]C([2H])([2H])c1cccc([C@@H]2CN(C)CC[C@H]2C(=O)N2Cc3nc(Nc4cnn(C)c4)ncc3C[C@H]2C)c1` (relative stereo) [Compound 97] was 6.23.

The values above are taken from patent publication US12679839B2, “Cyclin-dependent kinase 7 (CDK7) non-covalent inhibitors” (JANSSEN PHARMACEUTICA NV, priority 2020, dated 2026).
